Converted amounts (≈) assume the structure as drawn.
Experiments:
[1] = species on record: Homo sapiens; assay: Selectivity ratio of IC50 for human NAv1.2 to IC50 for human Nav1.8
[2] = target: Sodium channel protein type 10 subunit alpha (Homo sapiens, UniProt Q9Y5Y9); assay: Inhibition of human NaV1.8 by electrophysiology
[3] = target: Sodium channel protein type 10 subunit alpha (Rattus norvegicus, UniProt Q62968); assay: Inhibition of tetrodotoxin-resistant NaV1.8 in rat DRG neuron by electrophysiology
[4] = target: Sodium channel protein type 10 subunit alpha (Mus musculus, UniProt Q6QIY3); assay: Inhibition of mouse NaV1.8 by isotopic flux assay
[5] = species on record: Homo sapiens; assay: Selectivity ratio of IC50 for human ERG to IC50 for human Nav1.8
[6] = target: Sodium channel protein type 2 subunit alpha (Homo sapiens, UniProt Q99250); assay: Inhibition of human NaV1.2 by electrophysiology
[7] = Intrinsic clearance in rat microsomes after 1 hr; type: ADME, Microsome
[8] = Intrinsic clearance in human microsomes; type: ADME, Microsome
[9] = Cmax in rat; type: ADME, organism-based; details: in vivo
[10] = target: Voltage-gated inwardly rectifying potassium channel KCNH2 (Homo sapiens, UniProt Q12809); assay: Inhibition of human ERG by Isotopic flux assay
[11] = target: T1, P2X2/P2X3 heterotrimeric receptor (Homo sapiens, UniProt P56373+Q9UBL9); assay: Inhibition of P2X2/3 receptor; type: protein-complex assay
T1 sequence (Q9UBL9 whole entry): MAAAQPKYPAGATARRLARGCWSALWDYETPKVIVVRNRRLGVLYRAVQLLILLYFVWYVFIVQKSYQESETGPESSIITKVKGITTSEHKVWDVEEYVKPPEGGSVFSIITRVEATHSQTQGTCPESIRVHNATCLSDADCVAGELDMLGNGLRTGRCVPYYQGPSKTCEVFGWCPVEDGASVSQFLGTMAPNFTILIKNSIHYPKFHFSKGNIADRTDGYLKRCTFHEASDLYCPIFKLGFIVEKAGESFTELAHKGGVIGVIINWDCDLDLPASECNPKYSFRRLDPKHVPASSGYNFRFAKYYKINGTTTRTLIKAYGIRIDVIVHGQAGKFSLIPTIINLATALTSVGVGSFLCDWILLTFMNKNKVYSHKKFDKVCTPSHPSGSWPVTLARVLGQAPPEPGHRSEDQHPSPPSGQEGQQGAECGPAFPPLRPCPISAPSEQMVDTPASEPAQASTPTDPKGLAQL
T1 sequence (P56373 whole entry): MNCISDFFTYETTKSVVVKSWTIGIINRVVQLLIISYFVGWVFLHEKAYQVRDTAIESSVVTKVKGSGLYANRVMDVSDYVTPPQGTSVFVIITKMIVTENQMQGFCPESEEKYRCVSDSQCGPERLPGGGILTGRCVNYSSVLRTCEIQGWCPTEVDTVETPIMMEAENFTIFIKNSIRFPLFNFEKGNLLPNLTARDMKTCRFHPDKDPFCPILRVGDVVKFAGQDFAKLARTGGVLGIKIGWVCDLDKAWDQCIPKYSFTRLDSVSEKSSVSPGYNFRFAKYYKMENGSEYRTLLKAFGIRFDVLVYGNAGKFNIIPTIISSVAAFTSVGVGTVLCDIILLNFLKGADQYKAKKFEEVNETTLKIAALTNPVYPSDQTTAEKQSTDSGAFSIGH

[12] = target: Transient receptor potential cation channel subfamily V member 1 (Homo sapiens, UniProt Q8NER1); assay: Inhibition of TRPV1
[13] = species on record: Rattus norvegicus; assay: Analgesic activity in rat Chung model of neuropathic pain; type: functional
[14] = Plasma clearance in rat; type: ADME, organism-based
[15] = Volume of distribution at steady state in rat; type: ADME, organism-based; details: in vivo, read-out: Vdss
[16] = (§1) Plasma protein binding in rat; type: ADME, cell-free; details: read-out: PPB (converted)
[17] = Inhibition of benzodiazepine receptor at 10 uM
[18] = target: Voltage-dependent N-type calcium channel subunit alpha-1B (Homo sapiens, UniProt Q00975); assay: Inhibition of CaV2.2
[19] = species on record: Rattus norvegicus; assay: Analgesic activity in rat Chung model of neuropathic pain assessed as decrease in von Frey filament-induced pain; type: functional
[20] = target: Voltage-gated potassium channel, KQT; KCNQ2(Kv7.2)/KCNQ3(Kv7.3) (Homo sapiens, UniProt O43525+O43526); assay: Inhibition of KCNQ2/Q3; type: protein-complex assay
[21] = Ratio of drug level in brain to plasma in rat; type: ADME, cell-free; details: read-out: BPR
[22] = Aqueous solubility of the compound; type: physicochemical; details: buffer
[23] = target: Sodium channel protein type 5 subunit alpha (Homo sapiens, UniProt Q14524); assay: Inhibition of human NaV1.5 by electrophysiology
[24] = Oral bioavailability in rat at 3 mg/kg; type: ADME, organism-based; details: in vivo
[25] = Inhibition of chloride channel at 10 uM
[26] = system: Plasma; assay: as §1; type: ADME, cell-free

Sequence of Sodium channel protein type 2 subunit alpha (Q99250 whole entry): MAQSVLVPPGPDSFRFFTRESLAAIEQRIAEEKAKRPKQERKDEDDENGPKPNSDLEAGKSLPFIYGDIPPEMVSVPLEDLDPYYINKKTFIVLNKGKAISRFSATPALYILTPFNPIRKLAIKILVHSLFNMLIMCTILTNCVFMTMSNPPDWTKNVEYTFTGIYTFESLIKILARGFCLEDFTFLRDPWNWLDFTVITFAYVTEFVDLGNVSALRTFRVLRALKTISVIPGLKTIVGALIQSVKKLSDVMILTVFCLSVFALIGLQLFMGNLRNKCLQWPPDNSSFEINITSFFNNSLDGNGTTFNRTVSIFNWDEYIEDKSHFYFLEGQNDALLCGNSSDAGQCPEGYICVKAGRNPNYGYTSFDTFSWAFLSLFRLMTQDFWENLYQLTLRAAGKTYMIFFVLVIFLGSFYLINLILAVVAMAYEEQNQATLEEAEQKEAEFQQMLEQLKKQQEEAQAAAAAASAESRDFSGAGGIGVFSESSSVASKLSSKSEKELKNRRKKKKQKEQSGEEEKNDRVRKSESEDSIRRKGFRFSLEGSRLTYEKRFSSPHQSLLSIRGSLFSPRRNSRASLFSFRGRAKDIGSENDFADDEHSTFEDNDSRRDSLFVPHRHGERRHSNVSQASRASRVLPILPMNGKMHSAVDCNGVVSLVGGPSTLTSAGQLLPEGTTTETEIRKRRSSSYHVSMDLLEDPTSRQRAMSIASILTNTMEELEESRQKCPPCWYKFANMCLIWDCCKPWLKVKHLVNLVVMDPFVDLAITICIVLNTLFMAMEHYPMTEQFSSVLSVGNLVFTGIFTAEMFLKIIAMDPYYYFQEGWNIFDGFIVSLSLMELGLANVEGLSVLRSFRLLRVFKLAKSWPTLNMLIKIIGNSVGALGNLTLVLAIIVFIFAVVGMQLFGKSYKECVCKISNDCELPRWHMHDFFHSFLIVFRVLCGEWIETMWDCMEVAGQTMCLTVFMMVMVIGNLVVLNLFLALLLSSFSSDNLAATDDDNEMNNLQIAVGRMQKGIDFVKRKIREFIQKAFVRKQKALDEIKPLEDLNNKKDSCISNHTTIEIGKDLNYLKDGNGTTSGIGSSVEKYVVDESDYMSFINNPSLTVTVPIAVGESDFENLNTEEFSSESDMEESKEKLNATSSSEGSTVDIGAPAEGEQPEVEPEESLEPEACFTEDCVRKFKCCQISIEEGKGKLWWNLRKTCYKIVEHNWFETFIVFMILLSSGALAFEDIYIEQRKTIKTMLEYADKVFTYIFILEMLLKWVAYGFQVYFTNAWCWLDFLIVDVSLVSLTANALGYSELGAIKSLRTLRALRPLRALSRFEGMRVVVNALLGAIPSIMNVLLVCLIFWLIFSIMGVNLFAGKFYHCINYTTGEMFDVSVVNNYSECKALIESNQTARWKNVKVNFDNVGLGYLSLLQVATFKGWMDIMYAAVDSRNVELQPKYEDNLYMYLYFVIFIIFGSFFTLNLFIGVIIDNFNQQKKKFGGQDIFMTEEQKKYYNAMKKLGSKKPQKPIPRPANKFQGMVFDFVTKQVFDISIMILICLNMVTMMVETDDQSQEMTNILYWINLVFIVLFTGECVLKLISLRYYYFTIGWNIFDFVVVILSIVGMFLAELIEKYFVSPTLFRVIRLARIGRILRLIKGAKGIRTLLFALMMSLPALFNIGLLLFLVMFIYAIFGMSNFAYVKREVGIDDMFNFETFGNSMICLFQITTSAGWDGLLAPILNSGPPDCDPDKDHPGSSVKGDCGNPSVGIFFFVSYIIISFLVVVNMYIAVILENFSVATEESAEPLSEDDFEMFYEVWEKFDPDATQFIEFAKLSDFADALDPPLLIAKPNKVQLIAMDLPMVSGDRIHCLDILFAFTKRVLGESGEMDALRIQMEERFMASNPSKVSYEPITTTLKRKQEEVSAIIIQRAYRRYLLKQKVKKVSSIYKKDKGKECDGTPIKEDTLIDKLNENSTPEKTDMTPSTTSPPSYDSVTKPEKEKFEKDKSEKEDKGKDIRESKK
Sequence of Sodium channel protein type 10 subunit alpha (Homo sapiens, UniProt Q9Y5Y9) (Q9Y5Y9 whole entry): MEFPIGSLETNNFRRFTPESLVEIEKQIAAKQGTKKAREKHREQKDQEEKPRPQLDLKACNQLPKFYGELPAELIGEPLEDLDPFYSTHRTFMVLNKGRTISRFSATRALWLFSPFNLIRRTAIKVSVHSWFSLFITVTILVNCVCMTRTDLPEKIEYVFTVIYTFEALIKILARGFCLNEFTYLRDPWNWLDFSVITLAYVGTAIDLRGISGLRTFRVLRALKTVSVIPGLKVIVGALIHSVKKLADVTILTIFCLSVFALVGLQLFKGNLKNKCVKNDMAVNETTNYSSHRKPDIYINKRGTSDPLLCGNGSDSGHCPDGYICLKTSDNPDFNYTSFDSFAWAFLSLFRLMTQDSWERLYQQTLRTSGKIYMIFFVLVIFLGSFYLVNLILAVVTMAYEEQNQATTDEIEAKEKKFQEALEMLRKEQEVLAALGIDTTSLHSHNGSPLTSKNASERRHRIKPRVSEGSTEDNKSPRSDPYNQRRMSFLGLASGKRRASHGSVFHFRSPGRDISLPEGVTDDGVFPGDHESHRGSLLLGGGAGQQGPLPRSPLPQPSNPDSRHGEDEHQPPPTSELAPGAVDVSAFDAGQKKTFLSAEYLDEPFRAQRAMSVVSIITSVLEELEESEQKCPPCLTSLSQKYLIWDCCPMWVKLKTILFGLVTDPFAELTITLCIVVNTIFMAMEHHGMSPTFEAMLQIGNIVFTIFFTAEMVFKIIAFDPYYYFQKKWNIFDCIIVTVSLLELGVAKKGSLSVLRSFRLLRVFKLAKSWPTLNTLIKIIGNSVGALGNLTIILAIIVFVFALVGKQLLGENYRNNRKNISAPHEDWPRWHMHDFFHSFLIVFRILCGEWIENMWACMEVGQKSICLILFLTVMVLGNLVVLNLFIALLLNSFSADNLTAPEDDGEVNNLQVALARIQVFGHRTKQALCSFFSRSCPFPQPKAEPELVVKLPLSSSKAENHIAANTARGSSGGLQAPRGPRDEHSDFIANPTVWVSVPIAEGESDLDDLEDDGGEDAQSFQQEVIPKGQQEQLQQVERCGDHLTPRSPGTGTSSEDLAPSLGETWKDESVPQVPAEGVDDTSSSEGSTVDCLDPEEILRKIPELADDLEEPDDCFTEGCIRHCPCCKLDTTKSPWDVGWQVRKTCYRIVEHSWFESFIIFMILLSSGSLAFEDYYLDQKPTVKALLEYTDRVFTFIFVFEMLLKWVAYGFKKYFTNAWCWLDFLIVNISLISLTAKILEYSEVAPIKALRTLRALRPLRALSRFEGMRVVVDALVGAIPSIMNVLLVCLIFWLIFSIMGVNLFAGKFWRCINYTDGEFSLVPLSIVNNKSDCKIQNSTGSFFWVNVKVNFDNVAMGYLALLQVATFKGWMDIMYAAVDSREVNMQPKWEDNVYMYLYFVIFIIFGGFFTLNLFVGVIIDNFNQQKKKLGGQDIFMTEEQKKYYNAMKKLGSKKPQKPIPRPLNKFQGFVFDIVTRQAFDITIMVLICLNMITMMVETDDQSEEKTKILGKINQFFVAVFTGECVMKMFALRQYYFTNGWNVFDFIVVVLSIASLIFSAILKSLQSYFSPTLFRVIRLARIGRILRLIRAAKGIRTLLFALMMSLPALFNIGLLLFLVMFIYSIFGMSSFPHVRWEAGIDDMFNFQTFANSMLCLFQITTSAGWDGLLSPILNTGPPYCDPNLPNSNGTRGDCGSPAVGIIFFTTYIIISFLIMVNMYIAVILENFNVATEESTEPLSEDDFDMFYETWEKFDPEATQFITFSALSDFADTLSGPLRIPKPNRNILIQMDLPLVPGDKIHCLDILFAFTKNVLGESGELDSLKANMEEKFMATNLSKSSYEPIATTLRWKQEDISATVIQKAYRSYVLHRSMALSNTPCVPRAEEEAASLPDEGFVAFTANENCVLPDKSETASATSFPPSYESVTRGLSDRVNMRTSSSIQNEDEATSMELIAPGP
Sequence of Transient receptor potential cation channel subfamily V member 1 (Q8NER1 whole entry): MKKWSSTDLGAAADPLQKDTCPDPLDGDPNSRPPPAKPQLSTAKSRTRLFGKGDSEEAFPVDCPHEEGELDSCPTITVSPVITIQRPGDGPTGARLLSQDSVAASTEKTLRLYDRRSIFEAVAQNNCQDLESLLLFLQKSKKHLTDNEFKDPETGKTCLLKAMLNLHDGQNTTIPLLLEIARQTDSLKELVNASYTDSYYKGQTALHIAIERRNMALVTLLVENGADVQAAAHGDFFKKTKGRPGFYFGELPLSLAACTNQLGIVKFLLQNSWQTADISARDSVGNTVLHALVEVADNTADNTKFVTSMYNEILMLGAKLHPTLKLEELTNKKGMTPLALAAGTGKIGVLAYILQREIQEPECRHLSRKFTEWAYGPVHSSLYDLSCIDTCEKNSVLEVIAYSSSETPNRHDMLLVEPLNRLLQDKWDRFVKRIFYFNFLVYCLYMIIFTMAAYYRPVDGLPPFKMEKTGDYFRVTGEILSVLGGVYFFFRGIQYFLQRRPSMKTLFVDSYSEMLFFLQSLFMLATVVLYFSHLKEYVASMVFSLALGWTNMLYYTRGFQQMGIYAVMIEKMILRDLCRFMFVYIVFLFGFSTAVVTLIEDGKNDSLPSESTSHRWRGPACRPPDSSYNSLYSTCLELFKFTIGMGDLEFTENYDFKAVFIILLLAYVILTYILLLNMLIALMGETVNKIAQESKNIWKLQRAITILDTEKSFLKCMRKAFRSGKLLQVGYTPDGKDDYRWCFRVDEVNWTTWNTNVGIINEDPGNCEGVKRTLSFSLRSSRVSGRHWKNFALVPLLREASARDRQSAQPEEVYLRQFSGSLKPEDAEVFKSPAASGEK

Ratio IC50 [1]	IC50 [2] [nM]	IC50 [4] [nM]	Ratio IC50 [5]	IC50 [6] [nM]	Structure (SMILES)	IC50 [3] [nM]	also measured
–	4	81	–	1200	O=C(NCc1ccccc1Cl)c1cncc(-c2ccc(Cl)cc2)c1	66	–
> 30	26	530	> 30	–	Cc1cc(C)cc(NC(=O)c2cncc(-c3ccc(OC(F)(F)F)cc3)c2)c1	97	–
> 30	23	190	> 30	–	Cc1cc(C)cc(NC(=O)c2cncc(-c3ccc(C#N)cc3)c2)c1	91	Cmax [9]: 740 ng/mL; IC50 [10]: 16000 nM; microsomal CLint [7]: 270 µL/min/mg; IC50 [11]: > 10000 nM; IC50 [12]: > 10000 nM; ED50 [13]: 72 mg/kg; clearance [14]: 16.7 mL/min/kg; Vd [15]: 0.5 L/kg; fraction unbound [16]: 0.005; inhibition [17]: > 70%; IC50 [18]: > 10000 nM; Emax [19]: 60%; IC50 [20]: > 10000 nM; Kp [21]: 1.3; solubility [22]: 1.4 µg/mL (≈ 4.28 µM); IC50 [23]: > 30000 nM; bioavailability [24]: 17%
–	87	340	–	1600	O=C(NCc1cccnc1N1CCOCC1)c1cncc(-c2ccc(Cl)cc2)c1	98	solubility [22]: > 50 µg/mL
–	3	87	–	2800	O=C(NCc1cccnc1OCC(F)(F)F)c1cncc(-c2ccc(Cl)cc2)c1	28	Cmax [9]: 350 ng/mL; IC50 [10]: 19000 nM; microsomal CLint [7]: 68 µL/min/mg; IC50 [11]: > 10000 nM; IC50 [12]: > 10000 nM; ED50 [13]: 65 mg/kg; clearance [14]: 10 mL/min/kg; Vd [15]: 2 L/kg; inhibition [25]: > 70%; PPB [26]: 98.7%; IC50 [18]: > 10000 nM; Emax [19]: 66%; IC50 [20]: > 10000 nM; Kp [21]: 1; solubility [22]: 3.1 µg/mL (≈ 7.35 µM); IC50 [23]: 4700 nM; bioavailability [24]: 95%
> 30	780	11000	> 30	–	Cc1cc(C)cc(NC(=O)c2ccnc(-c3ccc(OC(F)(F)F)cc3)c2)c1	–	–
100	–	–	–	–	COc1cc(NC(=O)c2ccc(-c3ccc(Cl)cc3)o2)cc(OC)c1	125	solubility [22]: < 0.1 µg/mL; bioavailability [24]: 10%
–	22	620	–	1900	O=C(NCc1ccccc1)c1cncc(-c2ccc(Cl)cc2)c1	85	–
–	2	< 30	–	110	Cc1ccccc1CNC(=O)c1cncc(-c2ccc(Cl)cc2)c1	9	–
> 30	100	1900	> 30	–	Cc1cc(C)cc(NC(=O)c2cncc(-c3ccc(F)cc3)c2)c1	210	–
> 30	470	870	> 30	–	Cc1cc(C)cc(NC(=O)c2nc(-c3ccc(OC(F)(F)F)cc3)no2)c1	820	–
–	140	680	–	18000	O=C(NCc1cccnc1Cl)c1cncc(-c2ccc(Cl)cc2)c1	560	–
> 30	2	290	> 30	–	Cc1cc(C)cc(NC(=O)c2ccc(-c3ccc(OC(F)(F)F)cc3)o2)c1	130	–

The next lines start with the compound.

Structure (SMILES)	Ratio IC50 [1]	IC50 [2] [nM]	IC50 [4] [nM]	Ratio IC50 [5]	IC50 [6] [nM]	IC50 [3] [nM]	also measured
Cc1cc(C)cc(NC(=O)c2cnc(-c3ccc(OC(F)(F)F)cc3)o2)c1	> 30	280	340	> 30	–	950	–
O=C(NCc1ccccc1N1CCCCC1)c1cncc(-c2ccc(Cl)cc2)c1	–	8	< 30	–	50	45	–
Cc1cc(C)cc(NC(=O)c2cccc(-c3ccc(OC(F)(F)F)cc3)n2)c1	> 30	64	1500	> 30	–	510	–
Cc1cc(C)cc(NC(=O)c2nsc(-c3ccc(OC(F)(F)F)cc3)n2)c1	> 30	8	280	> 30	–	520	microsomal CLint [7]: > 300 µL/min/mg; microsomal CLint [8]: > 300 µL/min/mg
O=C(NCc1cccnc1N1CCCCC1)c1cncc(-c2ccc(Cl)cc2)c1	–	14	26	–	70	8	–
O=C(NCc1ccccc1N1CCOCC1)c1cncc(-c2ccc(Cl)cc2)c1	–	10	32	–	120	130	–
O=C(NCc1cccnc1)c1cncc(-c2ccc(Cl)cc2)c1	–	–	7900	–	–	–	–
Cc1cc(C)cc(NC(=O)c2cncc(-c3ccc(OC(F)(F)F)cc3)n2)c1	> 30	21	57	> 30	–	34	–
Cc1ncccc1CNC(=O)c1cncc(-c2ccc(Cl)cc2)c1	–	–	2600	–	–	–	–
CCOc1ncccc1CNC(=O)c1cncc(-c2ccc(Cl)cc2)c1	–	7	88	–	670	32	–
Cc1cc(C)cc(NC(=O)c2coc(-c3ccc(OC(F)(F)F)cc3)n2)c1	> 30	180	1400	> 30	–	2000	–
Cc1cc(C)cc(NC(=O)c2csc(-c3ccc(OC(F)(F)F)cc3)n2)c1	> 30	51	400	> 30	–	380	microsomal CLint [7]: > 300 µL/min/mg; microsomal CLint [8]: > 300 µL/min/mg
Cc1cc(C)cc(NC(=O)c2cncc(-c3ccc(Cl)cc3)c2)c1	> 30	9	610	> 30	–	87	–

— ChEMBL document CHEMBL1268885, “Subtype-selective Na(v)1.8 sodium channel blockers: identification of potent, orally active nicotinamide derivatives” (Bioorg Med Chem Lett, 2010)
